According to patent US6660473B1, “C-terminal protein tagging” (Phylos, Inc., priority 1999, dated 2003):

Columns and labels:
[1] = target: ribosomal peptidyl transferase; conditions: ribosomal peptidyl transferase site; cited from earlier work
[2] = system: stalled translation reaction (10Fn3-dA30 in rabbit reticulocyte lysate); conditions: labeling as in the myc experiment; Co2+-NTA purification
[3] = system: stalled translation reaction (myc-dA30 in rabbit reticulocyte lysate); conditions: 130 μM added to stalled translation reaction; 500 mM KCl, 20 mM MgCl2; anti-myc immunoprecipitation
From the text: Myc dsDNA was generated by standard methods of PCR to include a 5′-T7 promoter for in vitro synthesis of mRNA using T7 polymerase and a deletion mutant of the tobacco mosaic virus 5′-UTR to induce efficient translation initiation in rabbit reticulocyte lysates. The 3′-end of the myc construct was devoid of stop codons to prevent protein release from the ribosome.
Transcription of the myc PCR product (using the MegaSHORTscript kit, Ambion) gave large quantities of RNA using T7 RNA polymerase. Purified RNA was then subjected to a splinted ligation reaction with a 5′-phosphorylated dA30 oligonucleotide catalyzed by T4 DNA ligase. The 3′-dA30 region facilitates ribosomal stalling and thereby increases the proportion of RNA-ribosome-protein complexes available for labeling. The purified myc-dA30 construct was then translated in rabbit reticulocyte lysate (Ambion) with ^35S-methionine and stalled under high salt conditions (500 mM KCl, 20 mM MgCl2).
Biotin-TEG-dCdCdA was used as a control. The radiolabled myc peptide was then isolated by immunoprecipitation with an anti-myc monoclonal antibody (Chemicon) and protein A sepharose (Sigma). Control and C-terminally-labeled peptide were then applied to a microscope slide prefunctionalized with NeutrAvidin™ (Pierce).

## COc1ccc(C[C@H](N)C(=O)N[C@H]2[C@@H](O)[C@H](n3cnc4c(N(C)C)ncnc43)O[C@@H]2CO)cc1 [puromycin]
[1]
  Kd of unmodified puromycin: in the micromolar range

## Biotin-TEG-dCdC-puromycin
[2]
  immobilization of radiolabeled 10Fn3 on NeutrAvidin-spotted chip (phosphorimaging): presence of radiolabeled ^10Fn3
[3]
  immobilization of 35S-labeled myc epitope on NeutrAvidin slide (phosphorimaging): biotin-dependent immobilization of myc epitope to the chip surface

## Biotin-TEG-dCdCdA
[3]
  immobilization of 35S-labeled myc epitope on NeutrAvidin slide (phosphorimaging): no significant label
